The text below walks through data of ChEMBL document CHEMBL1201862, “PubChem BioAssay data set” (2004).

Structures are written as SMILES.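 1) Cells in 96-well plates. 2) Compound, 48 h, 5 concentrations. 3) Linear interpolation between surrounding doses. 4) Unreached endpoint = highest concentration. Here, GI50 denotes the concentration required for 50% inhibition of growth.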 Calls of active or inactive are those of the source. Cut-off read from the data, not from the text of the source: active = GI50 up to about 1.1 µM and inactive = higher. A value given as a limit tells only on which side of the number the result lay.

Holding throughout (test): DTP human tumour cell line panel, 48 h
Experiment [1] deals with MOLT-4.
The test system of experiment [2] is A498.
For experiment [3], the system named is NCI-H460.
Experiment [4] relates to OVCAR-5.
The test system of experiment [5] is SK-MEL-5.
Experiment [6] relates to UO-31.
Experiment [7] deals with SF-295.
Experiment [8] has as its system SK-OV-3.
Experiment [9] concerns K562.
Experiment [10] deals with CCRF-CEM.
Experiment [11] deals with KM12.
Experiment [12] deals with DU-145.
The subject of experiment [13] is SNB-19.
Experiment [14] relates to BT-549.
Experiment [15] deals with HL-60.
The subject of experiment [16] is EKVX.
The test system of experiment [17] is 786-0.
The test system of experiment [18] is Malme-3M.
For experiment [19], the system named is CAKI-1.
Experiment [20] deals with SK-MEL-2.

As to `C=C(Br)C(Br)(CCl)CCC(Cl)C(C)C.C=C(Cl)C(Br)(CCl)CCC(Cl)C(C)C` (stereo not given), the GI50 was 0.439 µM (active) in [1]; 17.7 µM (inactive) in [2]; 1.57 µM (inactive) in experiment [3]; 2.84 µM (inactive) in [4]; 1.82 µM (inactive) in [5]; 1.63 µM (inactive) in experiment [6]. Further, the GI50 in [7] is 6.92 µM (inactive); in [8], 2.3 µM (inactive); in experiment [9] it was 0.684 µM (active); in experiment [10] it was 0.254 µM (active); in experiment [11], 1.83 µM (inactive); in [12], 1.65 µM (inactive). The GI50 in [13] is 3 µM (inactive); in [14] it was 1.7 µM (inactive); in [15] it was 413 nM (active); in [16] it was 15.8 µM (inactive); in [17], 1.36 µM (inactive); in experiment [18], 2.49 µM (inactive). Further, the GI50 in [19] is 2.81 µM (inactive); in [20], 1.47 µM (inactive).
`COc1cc(/C=C2\N=C(c3ccccc3)N(c3nc4c(OC)ccc(OC)c4s3)C2=O)ccc1O`: the GI50 is 16.7 µM (inactive) in experiment [1]; > 100 µM (inactive) in experiment [2]; 51.4 µM (inactive) in experiment [3]; > 100 µM (inactive) in [4]; 54.8 µM (inactive) in experiment [5]; 76.7 µM (inactive) in [6]. Besides, the GI50 in experiment [7] was 79.1 µM (inactive); in [8] it was > 100 µM (inactive); in experiment [9], 18.1 µM (inactive); in [10] it was 28.1 µM (inactive); in experiment [11], 51.2 µM (inactive); in experiment [12], 28.8 µM (inactive). Besides, the GI50 is > 100 µM (inactive) in experiment [13]; 96.4 µM (inactive) in experiment [14]; 36600 nM (inactive) in experiment [15]; > 100 µM (inactive) in experiment [16]; 39.4 µM (inactive) in [17]; 85.7 µM (inactive) in [18]. Further, the GI50 in experiment [19] is > 100 µM (inactive); in [20], 35.5 µM (inactive).
Consider `CCCCCCCCCCCCCCCCCCOCC(COCCOCC[N+]1(CCCCCC(=O)[O-])CCCC1)Oc1ncccn1` (stereo not given), for which the GI50 in [1] was 4.92 µM (inactive); in experiment [2], 5.94 µM (inactive); in experiment [3], 2.36 µM (inactive); in experiment [4], 2.99 µM (inactive); in experiment [5] it was 4.22 µM (inactive); in [6], 10.1 µM (inactive). Besides, the GI50 in experiment [7] was 4.88 µM (inactive); in experiment [8], 3.87 µM (inactive); in [9], 2.19 µM (inactive); in [10], 2.59 µM (inactive); in experiment [11], 2.58 µM (inactive); in [12], 13.3 µM (inactive). The GI50 was 2.17 µM (inactive) in [13]; 7.29 µM (inactive) in experiment [14]; 395 nM (active) in experiment [15]; 14.6 µM (inactive) in [16]; 7.23 µM (inactive) in experiment [17]; 16.7 µM (inactive) in [18]. Further, the GI50 in experiment [19] is 9.51 µM (inactive); in experiment [20] it was 6.05 µM (inactive).
`CC(=O)OC1C(C)OC(OC2C[C@](O)(C(C)=O)Cc3c(O)c4c(c(O)c32)C(=O)c2ccccc2C4=O)C(F)C1OC(C)=O` (stereo not given in full): the 50% growth inhibitory concentration (GI50) in experiment [1] was < 0.0142 µM (active); in [2], 0.791 µM (active); in [3], 0.0353 µM (active); in experiment [4] it was 0.916 µM (active); in experiment [5] it was 0.408 µM (active); in [6] it was 0.115 µM (active). The GI50 in [7] is 0.13 µM (active); in [8], 0.617 µM (active); in experiment [9] it was 1.63 µM (inactive); in experiment [10] it was 0.197 µM (active); in [11], 1.85 µM (inactive); in experiment [12] it was 0.23 µM (active). The concentration for 50% growth inhibition (GI50) in experiment [13] is 0.245 µM (active); in experiment [14], 1.04 µM (active); in experiment [15] it was 154 nM (active); in experiment [16], 3.68 µM (inactive); in experiment [17], 0.287 µM (active); in [18], 1.14 µM (inactive). Besides, the concentration for 50% growth inhibition (GI50) is 0.13 µM (active) in [19] and 3.11 µM (inactive) in experiment [20].
Consider `COc1cc2cc(C(=O)N3CC(CCl)c4ccc(N(C)C)cc43)[nH]c2c(OC)c1OC` (stereo not given), for which the 50% growth inhibitory concentration (GI50) in experiment [1] is 0.048 µM (active); in [2], 0.0153 µM (active); in experiment [3], 0.0269 µM (active); in [4] it was 0.0853 µM (active); in experiment [5], 0.131 µM (active); in [6], 0.0381 µM (active). The GI50 was 0.0589 µM (active) in [7]; 0.261 µM (active) in experiment [8]; 0.0675 µM (active) in experiment [9]; 0.0547 µM (active) in [10]; 0.127 µM (active) in experiment [11]; 0.0333 µM (active) in experiment [12]. Further, the 50% growth inhibitory concentration (GI50) in [13] was 0.304 µM (active); in experiment [14], 0.131 µM (active); in experiment [15], 27.7 nM (active); in experiment [16] it was 0.173 µM (active); in experiment [17], 0.0361 µM (active); in experiment [18], 0.109 µM (active). Also, the GI50 in [19] was 0.0395 µM (active); in experiment [20], 0.063 µM (active).
With `CC1=NN(c2nc(N)nc(/C(C#N)=C/c3ccc([N+](=O)[O-])o3)n2)C(C)(C)C1`, the GI50 in experiment [1] was 2.26 µM (inactive); in [2], 17.8 µM (inactive); in [3], 2.57 µM (inactive); in experiment [4], 1.58 µM (inactive); in [5], 5.4 µM (inactive); in experiment [6], 2.92 µM (inactive). For the same compound, the GI50 is 16.5 µM (inactive) in experiment [7]; 21.1 µM (inactive) in experiment [8]; 0.315 µM (active) in [9]; 1.3 µM (inactive) in experiment [10]; 13.9 µM (inactive) in [11]; 6.35 µM (inactive) in experiment [12]. Further, the GI50 in experiment [13] was 15.7 µM (inactive); in experiment [14], 3.34 µM (inactive); in [15], 2350 nM (inactive); in experiment [16] it was 3.37 µM (inactive); in experiment [17] it was 1.57 µM (inactive); in experiment [18] it was 2.01 µM (inactive). Moreover, the GI50 in [19] is 1.85 µM (inactive); in [20] it was 6.34 µM (inactive).
Take `CC1=CC(=O)c2ccc3c4ccccc4n(C)c3c2C1=O`: the GI50 was 19.4 µM (inactive) in [1]; 83.6 µM (inactive) in experiment [2]; 29.4 µM (inactive) in experiment [3]; > 100 µM (inactive) in experiment [4]; 13.6 µM (inactive) in experiment [5]; > 65.9 µM (inactive) in experiment [6]. In addition, the GI50 in experiment [7] is > 54.5 µM (inactive); in [8], > 100 µM (inactive); in experiment [9], 16.1 µM (inactive); in experiment [10], 20.8 µM (inactive); in experiment [11], 34.4 µM (inactive); in [12] it was 63.2 µM (inactive). For the same compound, the GI50 in experiment [13] is 39.1 µM (inactive); in experiment [14] it was 41.8 µM (inactive); in experiment [15], 22800 nM (inactive); in experiment [16], > 19.8 µM (inactive); in [17], 56 µM (inactive); in experiment [18], 6.67 µM (inactive). Besides, the GI50 was 36.2 µM (inactive) in experiment [19] and 16.2 µM (inactive) in [20].
